Assay results taken from PubChem BioAssay (NCI).
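These data come from cells grown in 96-well plates and exposed to compound for 48 hours at five concentrations. GI50: concentration for 50% inhibition of growth. Definition used: TGI = concentration required for complete inhibition of growth.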

Legend:
Assay in all cases: inhibition of tumour cell growth, NCI panel, 48 h
[1] = tested on: OVCAR-3 ovarian
[2] = tested on: MCF7 breast
[3] = tested on: SW-620 colon
[4] = tested on: SK-MEL-2 melanoma
[5] = tested on: UACC-62 melanoma
[6] = tested on: NCI/ADR-RES ovarian
[7] = tested on: HCC-2998 colon
[8] = tested on: RPMI-8226 leukemia
[9] = tested on: HS 578T breast
[10] = tested on: NCI-H23 lung

SMILES	TGI [1]	TGI [2]	TGI [3]	TGI [4]	TGI [5]	TGI [6]	TGI [7]	TGI [8]	TGI [9]	TGI [10]	GI50 [1]	GI50 [2]	GI50 [3]	GI50 [4]	GI50 [5]	GI50 [6]	GI50 [7]	GI50 [8]	GI50 [9]	GI50 [10]
Cc1c2ccn(O)cc2c(C)c2c1nc1ccccc12	> 81.7 µM	> 100 µM	> 100 µM	> 50 µM	41.6 µM	> 100 µM	98.5 µM	> 100 µM	8.44 µM	30.2 µM	–	–	–	–	–	–	–	–	–	–
Cc1n[nH]c(=S)n(C)c1=S	> 100 µM	–	> 100 µM	> 100 µM	> 100 µM	–	–	> 100 µM	–	> 100 µM	–	–	–	–	–	–	–	–	–	–
COC(=O)c1ccccc1N(C(=O)c1ccccc1)c1ccccc1C	> 100 µM	–	> 100 µM	> 100 µM	> 100 µM	–	> 100 µM	–	–	79.3 µM	–	–	–	–	–	–	–	–	–	–
CSc1c(C2=C(c3cn(C)c4ccccc34)C(=O)NC2=O)c2ccccc2n1C	2 µM	> 25 µM	> 25 µM	5.37 µM	> 25 µM	> 25 µM	> 25 µM	> 7.04 µM	> 25 µM	> 25 µM	0.629 µM	0.805 µM	0.736 µM	0.689 µM	0.896 µM	1.02 µM	5.31 µM	0.813 µM	0.59 µM	1.39 µM
CCOC(=O)C(=O)Nc1nc2c(OCC)cccc2s1	> 100 µM	–	> 100 µM	> 100 µM	> 100 µM	–	> 100 µM	> 100 µM	–	> 100 µM	–	–	–	–	–	–	–	–	–	–
COc1cc2c(c(OC)c1OC)-c1ccc(O)cc1[C@@H](NC(C)=O)CC2	0.0513 µM	> 100 µM	> 100 µM	> 100 µM	> 100 µM	6.78 µM	> 100 µM	–	–	> 100 µM	0.0232 µM	0.0376 µM	0.0409 µM	0.0423 µM	0.0582 µM	0.533 µM	0.0465 µM	0.0312 µM	0.0371 µM	0.0544 µM
CCCCCCCCCCCCCCCCCc1nccn1CCOCCO	9.64 µg/mL	11.4 µg/mL	11.7 µg/mL	14 µg/mL	9.87 µg/mL	37.5 µg/mL	11.1 µg/mL	10.9 µg/mL	12.7 µg/mL	9.73 µg/mL	4.74 µg/mL	5.65 µg/mL	6.19 µg/mL	7.58 µg/mL	4.99 µg/mL	20.4 µg/mL	5.76 µg/mL	3.87 µg/mL	5.34 µg/mL	4.73 µg/mL
O=C(O)[C@H](Cc1c[nH]c2ccccc12)N1C(=O)c2ccccc2C1=O	> 100 µM	> 100 µM	> 100 µM	> 100 µM	> 100 µM	> 100 µM	> 100 µM	> 100 µM	> 100 µM	> 100 µM	–	–	–	–	–	–	–	–	–	–
COc1cc(C2CC(c3cccc(Nc4ccnc5cc(Cl)ccc45)c3)=NN2c2ccc(Cl)cc2)cc(OC)c1OC (centres undefined)	> 100 µM	> 100 µM	> 100 µM	35.3 µM	19.9 µM	> 100 µM	22.1 µM	> 100 µM	86.8 µM	> 100 µM	3.72 µM	2.31 µM	0.666 µM	4.65 µM	0.311 µM	3.18 µM	3.14 µM	3.69 µM	2.45 µM	17.5 µM
N.N.N.N.N.NC(=O)[O-].[Co+3].[I-]	> 100 µM	–	> 100 µM	> 100 µM	> 100 µM	–	> 100 µM	> 100 µM	–	> 100 µM	> 100 µM	–	> 100 µM	> 100 µM	> 100 µM	–	> 100 µM	> 100 µM	–	> 100 µM
CCCCCCCCCCCCCCCC1=NCCN1	4.02 µM	–	3.77 µM	4.87 µM	4.94 µM	5.09 µM	3.42 µM	–	6 µM	4.78 µM	2.01 µM	–	1.9 µM	2.36 µM	2.3 µM	2.16 µM	1.85 µM	–	2.22 µM	2.04 µM
CC(C)N(O)C(=N)c1ccccc1	–	–	> 100 µM	> 100 µM	–	–	> 100 µM	–	–	> 100 µM	–	–	–	–	–	–	–	–	–	–
Cc1ccc(-c2nc3ccccc3c(=O)n2NCC2(O)OCC(O)C(O)C2O)cc1 (centres undefined)	> 100 µM	–	> 100 µM	> 100 µM	> 100 µM	–	–	> 100 µM	–	> 100 µM	–	–	–	–	–	–	–	–	–	–
O=C1C(Cl)=C(Nc2ccc(Nc3ccccc3)c(NC3=C(Cl)C(=O)c4ccccc4C3=O)c2)C(=O)c2ccccc21	3.21 µM	44 µM	–	–	13.2 µM	> 100 µM	41.2 µM	> 100 µM	6.36 µM	> 100 µM	1.69 µM	5.31 µM	–	–	3.46 µM	27.5 µM	6.71 µM	3.33 µM	1.87 µM	19.6 µM
C=C(CO)CC(O)c1cc(OC)ccc1OC (centres undefined)	> 100 µM	–	> 100 µM	> 100 µM	> 100 µM	–	> 100 µM	> 100 µM	–	–	–	–	–	–	–	–	–	–	–	–
C[C@]12CCC(=O)C(OC(=O)c3ccc([N+](=O)[O-])cc3)=C1CCC2=O	> 100 µM	–	> 100 µM	–	> 100 µM	–	> 100 µM	> 100 µM	–	–	–	–	–	–	–	–	–	–	–	–
COc1cc(OC)c(C(=O)c2cccs2)cc1N	> 100 µM	–	> 100 µM	> 100 µM	> 100 µM	–	> 100 µM	> 100 µM	–	> 100 µM	–	–	–	–	–	–	–	–	–	–
CCN1CCC(Nc2ccnc3cc(Cl)ccc23)CC1	> 100 µM	> 100 µM	> 100 µM	–	39.2 µM	> 100 µM	> 100 µM	78.3 µM	48.9 µM	> 100 µM	24.8 µM	28.2 µM	21.8 µM	–	19.2 µM	44.8 µM	33.3 µM	25.9 µM	17.1 µM	74.1 µM
